Experimental data reported in ChEMBL document CHEMBL5360530, “Structure activity relationship (SAR) and anticancer activity of pyrrolidine derivatives: Recent developments and future prospects (A review)” (Eur J Med Chem, 2023).
pIC50: −log10 of the molar value.

Legend:
[1] = system: MCF7; assay: Anticancer activity against human MCF7 cells assessed as cell growth inhibition at 100 uM by MTT assay relative to control; format: functional
[2] = system: A549; assay: Anticancer activity against human A549 cells assessed as cell growth inhibition at 100 uM by MTT assay relative to control; format: functional
[3] = system: HepG2; assay: Anticancer activity against human HepG2 cells assessed as cell growth inhibition at 100 uM by MTT assay relative to control; format: functional
[4] = system: A-431; assay: Anticancer activity against human A-431 cells assessed as cell growth inhibition at 100 uM by MTT assay relative to control; format: functional
[5] = system: HCT-116; assay: Anticancer activity against human HCT-116 cells assessed as cell growth inhibition measured after 48 hrs by MTT assay; format: functional, cell-based; conditions: HCT-116, 48 h
[6] = system: PC-3; assay: Anticancer activity against human PC-3 cells assessed as cell growth inhibition measured after 48 hrs by MTT assay; format: functional, cell-based; conditions: PC-3, 48 h
[7] = system: HepG2; assay: Anticancer activity against human HepG2 cells assessed as cell growth inhibition measured after 48 hrs by MTT assay; format: functional, cell-based; conditions: HepG2, 48 h
[8] = system: FaDu; assay: Anticancer activity against human FaDu cells assessed as cell growth inhibition measured after 48 hrs; format: functional, cell-based
[9] = system: MCF7; assay: Anticancer activity against human MCF7 cells assessed as cell growth inhibition measured after 48 hrs by MTT assay; format: functional, cell-based; conditions: MCF7, 48 h
[10] = system: A549; assay: Anticancer activity against human A549 cells assessed as cell growth inhibition measured after 48 hrs by MTT assay; format: functional, cell-based; conditions: A549, 48 h

Compound: CCCCCCCCCCCCCCCCC/C=C\CCCCCCCC(=O)N1CC[C@@H](OP(=O)([O-])OCC[N+](C)(C)C)C1
- inhibition at 100 µM [1]: 22.6%
- inhibition at 100 µM [2]: 4.7%
- inhibition at 100 µM [3]: 10.1%
- inhibition at 100 µM [4]: 0.3%

Compound: O=C(/C=C/c1c(Cl)cccc1Cl)[C@H]1[C@H](c2c(Cl)cccc2Cl)[C@H]2CSCN2[C@]12C(=O)Nc1ccccc12
- pIC50 [5]: 5.80
- pIC50 [6]: ≤ 6.10
- pIC50 [7]: ≤ 5.82

Compound: CCCCCC/C=C\CCCCCCCC(=O)N1CC[C@@H](OP(=O)([O-])OCC[N+](C)(C)C)C1
- inhibition at 100 µM [1]: 22.6%
- inhibition at 100 µM [2]: 4.7%
- inhibition at 100 µM [3]: 10.1%
- inhibition at 100 µM [4]: 0.3%

Compound: O=C(/C=C/c1ccc(Br)cc1)[C@H]1[C@H](c2ccc(Br)cc2)[C@H]2CSCN2[C@]12C(=O)Nc1ccccc12
- pIC50 [5]: 5.52
- pIC50 [6]: ≤ 6.10
- pIC50 [7]: 6.10

Compound: COc1cccc(/C=C2\CN(/C=C/c3ccccc3)C[C@]3(C2=O)[C@H](c2cccc(OC)c2)[C@@H](Cc2ccccc2)NC32C(=O)Nc3ccccc32)c1 (stereo partly specified)
- pIC50 ([8]; Homo sapiens, FaDu, 48 h): ≤ 4.72

Compound: CCCCCCCCCCCCCCCCCC/C=C\CCCCCCCC(=O)N1CCC[C@H]1OP(=O)([O-])OCC[N+](C)(C)C
- inhibition at 100 µM [1]: 22.6%
- inhibition at 100 µM [2]: 4.7%
- inhibition at 100 µM [3]: 10.1%
- inhibition at 100 µM [4]: 0.3%

Compound: Cc1ccccc1/C=C1\CN(/C=C/c2ccccc2)C[C@]2(C1=O)[C@H](c1ccccc1C)[C@@H](Cc1ccccc1)NC21C(=O)Nc2ccccc21 (stereo partly specified)
- pIC50 ([8]; Homo sapiens, FaDu, 48 h): 4.63

Compound: O=C(/C=C/c1ccco1)[C@H]1[C@H](c2ccco2)[C@H]2CSCN2[C@]12C(=O)Nc1ccccc12
- pIC50 [5]: 5.80
- pIC50 [6]: ≤ 6.10
- pIC50 [7]: ≤ 5.82

Compound: BLEOMYCIN
- pIC50 ([8]; fadu): 4.51

Compound: CCCCCCCC/C=C\CC(=O)N1CC[C@H](OP(=O)([O-])OCC[N+](C)(C)C)C1
- inhibition at 100 µM [1]: 22.6%
- inhibition at 100 µM [2]: 4.7%
- inhibition at 100 µM [3]: 10.1%
- inhibition at 100 µM [4]: 0.3%

Compound: O=C(Nc1cc2ccccc2oc1=O)[C@@H]1CCCN1S(=O)(=O)c1ccccc1
- pIC50 [9]: 5.03
- pIC50 [10]: 5.13

Compound: COc1ccccc1/C=C1\CN(/C=C/c2ccccc2)C[C@]2(C1=O)[C@H](c1ccccc1OC)[C@@H](Cc1ccccc1)NC21C(=O)Nc2ccccc21 (stereo partly specified)
- pIC50 ([8]; Homo sapiens, FaDu, 48 h): ≤ 4.72

Compound: Cc1cc(=O)oc2cc(NC(=O)[C@@H]3CCCN3S(=O)(=O)c3ccc(Cl)cc3)ccc12
- pIC50 [9]: 5.15
- pIC50 [10]: 4.56

Compound: O=C(/C=C/c1cccc(Br)c1)[C@H]1[C@H](c2cccc(Br)c2)[C@H]2CSCN2[C@]12C(=O)Nc1ccccc12
- pIC50 [5]: 5.80
- pIC50 [6]: ≤ 6.10
- pIC50 [7]: ≤ 5.82

Compound: COc1ccc(/C=C/C(=O)[C@H]2[C@H](c3ccc(OC)cc3)[C@H]3CSCN3[C@]23C(=O)Nc2ccccc23)cc1
- pIC50 [5]: 5.80
- pIC50 [6]: ≤ 6.10
- pIC50 [7]: ≤ 5.82

Compound: Cc1ccc(/C=C/C(=O)[C@H]2[C@H](c3ccc(C)cc3)[C@H]3CSCN3[C@]23C(=O)Nc2ccccc23)cc1
- pIC50 [5]: 5.80
- pIC50 [6]: ≤ 6.10
- pIC50 [7]: ≤ 5.82

Compound: CCCCCCCCCCCCCCCCC/C=C\CCCCCCCC(=O)N1CC[C@H](OP(=O)([O-])OCC[N+](C)(C)C)C1
- inhibition at 100 µM [1]: 22.6%
- inhibition at 100 µM [2]: 4.7%
- inhibition at 100 µM [3]: 10.1%
- inhibition at 100 µM [4]: 0.3%

Compound: CCOC(=O)[C@H]1CCCN1CC(=O)Nc1cc2ccccc2oc1=O
- pIC50 [9]: 5.03
- pIC50 [10]: 5.51

Compound: NC(=O)[C@H]1CCCN1CC(=O)Nc1cc2ccccc2oc1=O
- pIC50 [9]: 6.45
- pIC50 [10]: 7.62

Compound: O=C1Nc2ccccc2C12N[C@H](Cc1ccccc1)[C@@H](c1ccccc1)[C@@]21CN(/C=C/c2ccccc2)C/C(=C\c2ccccc2)C1=O (stereo partly specified)
- pIC50 ([8]; Homo sapiens, FaDu, 48 h): 4.72

Compound: Cc1ccc(/C=C2\CN(/C=C/c3ccccc3)C[C@]3(C2=O)[C@H](c2ccc(C)cc2)[C@@H](Cc2ccccc2)NC32C(=O)Nc3ccccc32)cc1 (stereo partly specified)
- pIC50 ([8]; Homo sapiens, FaDu, 48 h): ≤ 4.72

Compound: O=C1Nc2ccccc2C12N[C@H](Cc1ccccc1)[C@@H](c1ccccc1Br)[C@@]21CN(/C=C/c2ccccc2)C/C(=C\c2ccccc2Br)C1=O (stereo partly specified)
- pIC50 ([8]; Homo sapiens, FaDu, 48 h): ≤ 4.72

Compound: CCOC(=O)[C@H]1CCCN1CC(=O)Nc1ccc2c(C)cc(=O)oc2c1
- pIC50 [9]: 6.45
- pIC50 [10]: 7.62

Compound: O=C(Nc1cc2ccccc2oc1=O)[C@@H]1CCCN1S(=O)(=O)c1ccc(Cl)cc1
- pIC50 [9]: 5.36
- pIC50 [10]: 5.42

Compound: CCCCCCCCCCCCCCCC(=O)N1CCC[C@H]1OP(=O)([O-])OCC[N+](C)(C)C
- inhibition at 100 µM [1]: 22.6%
- inhibition at 100 µM [2]: 71.6%
- inhibition at 100 µM [3]: 10.1%
- inhibition at 100 µM [4]: 0.3%

Compound: CCCCCCCC/C=C\CC(=O)N1CC[C@@H](COP(=O)([O-])OCC[N+](C)(C)C)C1
- inhibition at 100 µM [1]: 92.9%
- inhibition at 100 µM [2]: 58.7%
- inhibition at 100 µM [3]: 72.8%
- inhibition at 100 µM [4]: 67.3%

Compound: COc1ccc(/C=C2\CN(/C=C/c3ccccc3)C[C@]3(C2=O)[C@H](c2ccc(OC)cc2)[C@@H](Cc2ccccc2)NC32C(=O)Nc3ccccc32)cc1 (stereo partly specified)
- pIC50 ([8]; Homo sapiens, FaDu, 48 h): ≤ 4.72
